Reference: PubChem BioAssay (NCI)
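Five compound concentrations were applied to cells in 96-well plates for 48 hours; endpoints were derived by simple linear interpolation of the resulting dose-response curve. GI50 marks 50% less growth. TGI: total growth inhibition.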

Assays:
Assay in all cases: growth of human tumour cells (NCI), 48 h
ACHN renal = system: ACHN renal
MALME-3M melanoma = system: MALME-3M melanoma
MDA-MB-435 = system: MDA-MB-435
NCI-H460 lung = system: NCI-H460 lung
OVCAR-3 ovarian = system: OVCAR-3 ovarian
OVCAR-5 ovarian = system: OVCAR-5 ovarian
OVCAR-8 ovarian = system: OVCAR-8 ovarian
RXF 393 renal = system: RXF 393 renal
SK-MEL-5 melanoma = system: SK-MEL-5 melanoma
SK-OV-3 ovarian = system: SK-OV-3 ovarian

COc1ccc(-c2ccc(-c3ccc(C(=N)N)nc3)s2)cc1Cl
GI50 (ACHN renal): 1770 nM
TGI (ACHN renal): 3.15 µM
GI50 (MALME-3M melanoma): 1780 nM
TGI (MALME-3M melanoma): 3.32 µM
GI50 (MDA-MB-435): 1730 nM
TGI (MDA-MB-435): 3.12 µM
GI50 (NCI-H460 lung): 1800 nM
TGI (NCI-H460 lung): 3.36 µM
GI50 (OVCAR-3 ovarian): 1830 nM
TGI (OVCAR-3 ovarian): 3.24 µM
GI50 (OVCAR-5 ovarian): 1860 nM
TGI (OVCAR-5 ovarian): 3.32 µM
GI50 (OVCAR-8 ovarian): 2600 nM
TGI (OVCAR-8 ovarian): 7.13 µM
GI50 (RXF 393 renal): 1760 nM
TGI (RXF 393 renal): 3.23 µM
GI50 (SK-MEL-5 melanoma): 1820 nM
TGI (SK-MEL-5 melanoma): 3.32 µM
GI50 (SK-OV-3 ovarian): 1750 nM
TGI (SK-OV-3 ovarian): 3.36 µM
